Assay results from PMC3511469, “Five Different Piscidins from Nile Tilapia, Oreochromis niloticus: Analysis of Their Expressions and Biological Functions” (PLoS ONE, 2012).
Where no end group is shown, it is not given here.

Columns and labels:
V. alginolyticus = assay type: cell-based, Vibrio alginolyticus; conditions: pH 7.4
Experimental: (§1) Escherichia coli for transformation was cultured in LB medium at 37°C.
(§2) Peptides were synthesized by GL Biochem (Shanghai, China) using a solid-phase procedure of Fmoc chemistry. Crude peptides were extracted, lyophilized, and purified by reverse-phase high-performance liquid chromatography (HPLC). The molecular masses and purities of the purified peptides were respectively verified by mass spectroscopy and HPLC. Synthetic peptides at >95% purity were reconstituted in phosphate-buffered saline (PBS; pH 7.4) for the experiments. The TP1 sequence was FDWDSVLKGVEGFVRGYF, the TP2 sequence was […], the TP3 sequence was […], the TP4 sequence was […], the TP5 sequence was […], the epinecidin-1 (Epi-1) sequence was […], and the cod pis 1 sequence was […]. C terminals of all synthetic peptides were amidated. The minimal inhibitory concentration (MIC) was measured for each strain of microorganism listed above. The MICs of the peptides were determined by a broth microdilution analysis based on an online method (http://cmdr.ubc.ca/bobh/methods/MODIFIEDMIC.html; Hancock Laboratory Methods. Department of Microbiology and Immunology, University of British Columbia, British Columbia, Canada) without modification.

V. vulnificus 204 = assay type: cell-based, Vibrio vulnificus; conditions: 204, pH 7.4
Experimental: as §1, §2

P. aeruginosa ATCC 19660 = assay type: cell-based, Pseudomonas aeruginosa; conditions: ATCC 19660, pH 7.4
Experimental: as §1, §2

A. hydrophila BCRC 13018 = assay type: cell-based, Aeromonas hydrophila; conditions: BCRC 13018, pH 7.4
Experimental: as §1, §2

S. agalactiae BCRC 10787 = assay type: cell-based, Streptococcus agalactiae; conditions: BCRC 10787, pH 7.4
Experimental: as §1, §2

S. agalactiae 819 = assay type: cell-based, Streptococcus agalactiae; conditions: 819, pH 7.4
Experimental: as §1, §2

E. faecalis BCRC 10066 = assay type: cell-based, Enterococcus faecalis; conditions: BCRC 10066, pH 7.4
Experimental: as §1, §2

[1] = system: methicillin-resistant Staphylococcus aureus (MRSA); conditions: in vitro assay; synthetic peptide; cited from earlier work
From the text: Piscidins are cationic AMPs expressed by fish mast cells. […] The piscidin family includes pleurocidin, moronecidin, chrysophsin, dicentracin, epinecidin-1, and myxinidin. Piscidins have a widespread presence in higher teleosts, so far including 11 species in eight families of the Moronidae, Sciaenidae, Sparidae, Latidae, Siganidae, Belontida ...

erythrocytes of tilapia = assay type: cell-based
Experimental: (§3) The hemolytic activities of Nile tilapia piscidins were determined according to a previous method, [34]. In brief, erythrocytes of tilapia (2×10^7 cells) were washed three times with 0.9% NaCl and incubated with various concentrations of the peptides for 3 h at 37°C. After centrifugation, the absorbance at 545 nm of the suspension was determined. Erythrocytes in PBS (Ablank) and 0.1% Triton X-100 (Atriton) respectively served as the negative and positive controls. The percentage of hemolysis was calculated according to the equation described in a previous publication. The hemolysis assay was performed in triplicate.

human erythrocytes = assay type: cell-based
Experimental: as §3
Supplementary file pone.0050263.s004.tif: Figure S4 In vitro assays used HeLa (ATCC: CCL-2™), RAW264.7 (ATCC: TIB-71™), and MRC-5 (ATCC: CCL-171™) cells. Tumor cells (HeLa and RAW264.7 cells) and normal cells (MRC-5) were treated with different doses of piscidin peptides (TP1∼5) for 24 h, followed by an MTS assay. Each concentration was repeated in eight wells for three independent experiments. Results are expressed as a percentage of the survival rate of viable cells. Piscidin treatment affected cell viability in a dose-dependent manner. There were significant differences between treatment groups for TP4 and TP3. Data are from three separate experiments. Hemolytic activities of TP1∼5 against human erythrocytes. […]

## FDWDSVLKGVEGFVRGYF-NH2 [TP1]
V. alginolyticus
  MIC: >23.57 µg/mL
V. vulnificus 204
  MIC: >23.57 µg/mL
P. aeruginosa ATCC 19660
  MIC: >23.57 µg/mL
A. hydrophila BCRC 13018
  MIC: >23.57 µg/mL
S. agalactiae BCRC 10787
  MIC: >23.57 µg/mL
S. agalactiae 819
  MIC: >23.57 µg/mL
E. faecalis BCRC 10066
  MIC: >23.57 µg/mL

## FFHHIFRGIVHVGKTIHRLVTG [piscidin 1, synthetic piscidin 1, literature values]
[1]
  MIC: 3.1 µM

## FIHHIIGGLFSAGKAIHRLIRRRRR-NH2 [TP4]
V. alginolyticus
  MIC: 0.03 µg/mL
V. vulnificus 204
  MIC: 0.03 µg/mL
P. aeruginosa ATCC 19660
  MIC: 0.52 µg/mL
Erythrocytes of tilapia
  concentration at which the hemolytic effect began: 400 to 800 ng/mL
A. hydrophila BCRC 13018
  MIC: 1.05 µg/mL
Human erythrocytes
  concentration at which the hemolytic effect began: 400 to 800 ng/mL
S. agalactiae BCRC 10787
  MIC: 0.13 µg/mL
S. agalactiae 819
  MIC: 2.10 µg/mL
E. faecalis BCRC 10066
  MIC: 8.39 µg/mL

## FIHHIIGGLFSVGKHIHSLIHGH-NH2 [TP3]
V. alginolyticus
  MIC: 2.44 µg/mL
V. vulnificus 204
  MIC: 2.44 µg/mL
P. aeruginosa ATCC 19660
  MIC: >19.55 µg/mL
A. hydrophila BCRC 13018
  MIC: >19.55 µg/mL
Human erythrocytes
  hemolytic activity toward human erythrocytes: low hemolytic activity
S. agalactiae BCRC 10787
  MIC: 0.61 µg/mL
S. agalactiae 819
  MIC: 9.78 µg/mL
E. faecalis BCRC 10066
  MIC: 19.55 µg/mL

## FIHHIIGWISHGVRAIHRAIHG-NH2 [cod Pis 1, reference compound]
V. alginolyticus
  MIC: 1.24 µg/mL
V. vulnificus 204
  MIC: 0.62 µg/mL
P. aeruginosa ATCC 19660
  MIC: >19.78 µg/mL
A. hydrophila BCRC 13018
  MIC: 19.78 µg/mL
S. agalactiae BCRC 10787
  MIC: 0.31 µg/mL
S. agalactiae 819
  MIC: 9.89 µg/mL
E. faecalis BCRC 10066
  MIC: 9.89 µg/mL

## GECIWDAIFHGAKHFLHRLVNP-NH2 [TP2]
V. alginolyticus
  MIC: >19.52 µg/mL
V. vulnificus 204
  MIC: >19.52 µg/mL
P. aeruginosa ATCC 19660
  MIC: >19.52 µg/mL
A. hydrophila BCRC 13018
  MIC: >19.52 µg/mL
S. agalactiae BCRC 10787
  MIC: >19.52 µg/mL
S. agalactiae 819
  MIC: >19.52 µg/mL
E. faecalis BCRC 10066
  MIC: >19.52 µg/mL

## GFIFHIIKGLFHAGKMIHGLV-NH2 [Epi-1, epinecidin-1, reference compound]
V. alginolyticus
  MIC: 2.68 µg/mL
V. vulnificus 204
  MIC: 0.67 µg/mL
P. aeruginosa ATCC 19660
  MIC: 10.70 µg/mL
A. hydrophila BCRC 13018
  MIC: >21.41 µg/mL
S. agalactiae BCRC 10787
  MIC: 0.33 µg/mL
S. agalactiae 819
  MIC: >21.41 µg/mL
E. faecalis BCRC 10066
  MIC: >21.41 µg/mL

## QLQGKQVSGEVVQKVLQELIQSVAKP-NH2 [TP5]
V. alginolyticus
  MIC: >17.64 µg/mL
V. vulnificus 204
  MIC: >17.64 µg/mL
P. aeruginosa ATCC 19660
  MIC: >17.64 µg/mL
A. hydrophila BCRC 13018
  MIC: >17.64 µg/mL
S. agalactiae BCRC 10787
  MIC: >17.64 µg/mL
S. agalactiae 819
  MIC: >17.64 µg/mL
E. faecalis BCRC 10066
  MIC: >17.64 µg/mL
